Experimental data published in patent US9745506B2, “Treatment fluids for use in removing acid-soluble materials in subterranean formations” (Halliburton Energy Services, Inc., priority 2015, dated 2017).
Where two headings read alike, the source gives them in different places.

Key:
solubility of PMIDA = assay type: physicochemical; conditions: room temperature
Excerpt: The solubility of the PMIDA in the MSA and the ability of both the MSA and the PMIDA to remove acid-soluble materials of the present disclosure synergistically operate to continuously remove acid-soluble materials at deeper far-field locations than traditional acid fluids, which may become spent prior to reaching such deep areas.
In the working temperature range of the treatment fluid, as described above, the PMIDA may be solubilized in the MSA of the treatment fluids described herein. In some embodiments, the PMIDA is about 5% w/v soluble at room temperature in a solution of about 70% MSA in an aqueous base fluid, described below. In other embodiments, higher w/v concentrations of PMIDA may be prepared using varied solutions of MSA alone or in combination with an aqueous base fluid, which will undergo different dissolution amounts depending on the working temperature of the treatment fluid. Each of these values is critical to the embodiments described herein and may depend on a number of factors including, but not limited to, the working temperature of the treatment fluid (e.g., the temperature or temperature range of the subterranean formation being treated), the amount of MSA in the treatment fluid relative to the PMIDA, the amount of PMIDA in the treatment fluid relative to the MSA, and the like.

[1] = 25° C.; cited from earlier work
[2] = cited from earlier work

| Compound | soluble in a solution of about 70% MSA in an aqueous base fluid (solubility of PMIDA) | solubility in water [1] [µg/mL] | pKa ([2]; 25° C. in dimethyl sulfoxide) | pKa ([2]; 25° C. in water) |
| --- | --- | --- | --- | --- |
| O=C(O)CN(CC(=O)O)CP(=O)(O)O [PMIDA, N-(phosphonomethyl)iminodiacetic acid] | about 5 % w/v | < 500 | – | – |
| methanesulfonic acid [MSA] | – | – | about 1.6 | −1.9 |
